In patent publication US20040023984A1, “Compounds for the treatment of alzheimer's disease” (priority 1987, published 2004):
“And” between values parts separate entries of the source, which are not always exact repeats. Equal values may be shown once. Read-outs that look alike come from different tables or passages of the source.

Legend:
acetylcholinesterase [1] = molecular target: T1, acetylcholinesterase (Homo sapiens, UniProt P22303); test: Inhibition of acetylcholinesterase, procedure of Ellman (acetylthiocholine substrate, photometric); type: biochemical; details: for inhibition at 1 µM: read-out: inhibition of acetylcholinesterase at concentration 10^−6 molar; for inhibition at 0.001 µM: read-out: inhibition of acetylcholinesterase at concentration 10^−9 molar; for cholinesterase inhibition at 10^−5 M: further compounds
Protocol: The anticholinesterase activity of the compounds prepared in the above examples was assayed by an assay for inhibition of acetylcholinesterase following the procedure of G. Ellman, […], 7:88-95 (1961) Acetylthiocholine serves as substrate since it acts like acetylcholine. Acetylcholinesterase cleaves it to thiocholine and acetate which react with dithiobisnitrobenzoate to form a yellow color which is measured photometrically.
This assay was carried out at dilution of 10^−5 molar
The compounds were tested in the assay described after Example 5 but at different concentrations. The results obtained were as follows:
Further compounds were prepared by methods analogous to those described above and were tested in a cholinesterase assay as described above.

[2] = test system: scopolamine induced memory deficit; test: Scopolamine dementia dark avoidance test (passive avoidance); type: in vivo, male CFW mice
Protocol: Furnished data on the effects of these compound on cholinesterase activity were used to determine doses for testing. […] The two other compounds were tested at 1,3 and 10 mg/kg sc and did antagonize the scopolamine induced deficit.
Training and testing of passive avoidance were conducted in a two-compartment (light/dark) test cage. On the training day, mice were individually placed in the light half of the cage and after entering the dark compartment, were administered a 3 sec 0.4 mA footshock. They were then removed from the test chamber and returned to their home cages. Twenty-four hours later, the animals were again placed in the lighted half of the test cage and the latency to enter the dark compartment was measured.
All animals in each group of 15 naive male CFW mice were injected twice subcutaneously. Thirty minutes prior to training, animals were administered 3 mg/kg scopolamine HBr or its 0.9% NaCl vehicle. Five minutes prior to training, independent groups were administered one of three doses of the test compounds or the distilled water vehicle. One group in each experiment received vehicle twice, another group received scopolamine and the dH2O vehicle; the remaining groups received scopolamine and a test compound.
A cutoff value (CO), defined as the second-longest latency in the scopolamine/vehicle treated group, was used to determine whether a compound was active. If 20% or more of the animals in a treatment group had latencies greater than the CO value, the compound was considered active at that dose.
The three compounds were tested in two separate experiments; the results are presented below in Tables 1 and 2. Doses considered active are marked with an asterisk (*).

[3] = Solubility noted on isolation of the product; type: physicochemical
acetylcholinesterase [4] = molecular target: T1, acetylcholinesterase; test: biochemical
cholinesterase = details: Irwin and Smith, Arch. Int. Pharmacodyn. 127:314-330; cited from earlier work
acetylcholinesterase [5] = molecular target: T1, acetylcholinesterase; test: Acetylcholinesterase Inhibition Assay (other cholinesterase activity tests, may be less reliable); type: biochemical; details: results may be less reliable
[6] = test system: nucleas basalis-lesioned animals; test: Nucleus basalis model, passive avoidance in shuttle box; type: in vivo, mice; details: nucleus basalis model, mice, drug given three and ½ hours before learning trials
From the text: The following test provides a good animal model for Alzheimer's disease in humans: A selective lesion is placed in a subcortical nucleus (nucleus basalis of Meynert) with a resultant cortical cholinergic deficiency, similar in magnitude to that seen in early to moderate stage Alzheimer's disease. Numerous behavioral deficits, including the inability to learn and retain new information, characterizes this lesion. Drugs that can normalize these abnormalities would have a reasonable expectation of efficacy in Alzheimer's disease. Haroutunian, V, Kanof P, Davis, K L: Pharmacological alleviations of cholinergic-lesion-induced memory defects in rats. Life Sciences, 37:945-952 (1985).
Galanthamine n-butyl carbamate was tested in the nucleus basalis model for galanthamine discussed in the Hartounian et al paper noted above. In the test, mice were given the drug three and ½ hours before two learning trials in a shuttle box. They are placed in the lighted compartment and receive an electric footshock when they cross into the preferred side, the dark. The next day, they are again placed in the lighted compartment and the time to enter the dark is noted. The latency to enter the dark compartment is the basis for this figure. […] Below 50 mg/kg no side effects were noted.

mice = test: Profile of Observable Effects (POE), peripheral cholinergic effects; details: subcutaneous
Protocol: A number of compounds were also evaluated in a standardized Profile of Observable Effects (POE) which involves administering drug to animal in increasing amounts and observing this for up to two hours to see whether peripheral cholinergic effects such as tremor, lacrimation, salivation, pilo erection, defection or red eye occur.

[7] = dilution of 10^−5 molar, read-out: PERCENT INHIBITION OF ACETYLCHOLINESTERASE
[8] = Table 2, scopolamine + 1 mg/kg sc, cut-off 41 seconds
[9] = Table 2, scopolamine + 3 mg/kg sc, cut-off 41 seconds
[10] = Table 2, scopolamine + 10 mg/kg sc, cut-off 41 seconds
[11] = 10^−5 molar, read-out: inhibition of acetylcholinesterase at concentration 10^−5
[12] = Table 1, scopolamine + 0.3 mg/kg sc, cut-off 38 seconds
[13] = Table 1, scopolamine + 2.0 mg/kg sc, cut-off 38 seconds
[14] = Table 1, scopolamine + 3.0 mg/kg sc, cut-off 38 seconds

T1 sequence (P22303 32-614, species assumed): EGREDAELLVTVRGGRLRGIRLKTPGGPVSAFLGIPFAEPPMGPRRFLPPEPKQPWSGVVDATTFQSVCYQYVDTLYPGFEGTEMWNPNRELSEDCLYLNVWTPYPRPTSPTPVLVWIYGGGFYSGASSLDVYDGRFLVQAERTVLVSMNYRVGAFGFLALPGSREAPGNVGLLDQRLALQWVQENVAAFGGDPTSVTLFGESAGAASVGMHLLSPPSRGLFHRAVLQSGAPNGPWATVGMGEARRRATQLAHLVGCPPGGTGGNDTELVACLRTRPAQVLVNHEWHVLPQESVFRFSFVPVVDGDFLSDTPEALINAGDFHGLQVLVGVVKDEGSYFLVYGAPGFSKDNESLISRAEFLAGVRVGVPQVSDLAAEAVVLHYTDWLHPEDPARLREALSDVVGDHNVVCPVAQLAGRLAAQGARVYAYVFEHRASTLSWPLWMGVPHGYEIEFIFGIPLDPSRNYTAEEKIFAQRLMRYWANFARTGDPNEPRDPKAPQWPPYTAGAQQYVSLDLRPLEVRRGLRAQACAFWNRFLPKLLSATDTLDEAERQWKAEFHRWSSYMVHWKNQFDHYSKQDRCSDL

Compound: COc1ccc2c3c1O[C@H]1C[C@@H](O)CC[C@@]31CCN(C)C2 [Product of Example 5]
- inhibition at 10 µM (acetylcholinesterase [1]; [7]): 30%

Compound: COc1ccc2c3c1O[C@H]1C[C@@H](OC(C)=O)C=C[C@@]31CCN(C)C2 [Product of Example 2, Galanthamine acetate]
- inhibition at 10 µM (acetylcholinesterase [1]; [7]): 37%
- # > CO/n [2, 8]: 1/15
- % > CO [2, 8]: 7%
- Mean Latency [2, 8]: 21 s
- # > CO/n [2, 9]: 4/15
- Mean Latency [2, 9]: 38 s
- % > CO ([2]; Table 2, scopolamine + 3 mg/kg sc, cut-off 41 seconds, * = dose considered active): 27* %
- # > CO/n [2, 10]: 3/15
- Mean Latency [2, 10]: 31 s
- % > CO ([2]; Table 2, scopolamine + 10 mg/kg sc, cut-off 41 seconds, * = dose considered active): 20* %
- antagonism of scopolamine induced memory deficit ([2]; doses of 3 and 10 mg/kg sc): active

Compound: COc1ccc2c3c1OC1CC(O)CCC31CCNC2 (stereo not shown) [N-demethyl lycoramine]
- inhibition of acetylcholinesterase at concentration 10^−5 (acetylcholinesterase [1]; 10^−5 molar): inactive

Compound: COc1ccc2c3c1O[C@H]1C[C@@H](O[Si](C(C)C)(C(C)C)C(C)C)C=C[C@@]31CCN(C)C2 [Product of Example 7]
- solubility in alcohols [3]: soluble
- inhibition of acetylcholinesterase at concentration 10^−5 (acetylcholinesterase [1]; 10^−5 molar): 17

Compound: COc1cc2c3c(c1)OC1C[C@@H](O)C=C[C@@]31CC[N+](C)(Cc1ccccc1)C2.[Br-] (stereo partly shown) [galanthamine benzyl bromide]
- solubility in alcohols [3]: soluble
- inhibition at 1 µM (acetylcholinesterase [1]): 77%
- inhibition at 0.001 µM (acetylcholinesterase [1]): 40%

Compound: COC1C=C[C@@]23CCN(C)Cc4ccc(O)c(c42)OC3C1 (stereo partly shown) [childanthine]
- IC50 (acetylcholinesterase [4]; read-out: IC50, acetyl cholinesterase inhibition): 310 nM and 80 nM

Compound: COc1ccc2c3c1OC1CC(OC(C)=O)CCC31CC[N+](C)(C)C2.[I-] (stereo not shown) [lycoramine acetate methiodide]
- cholinesterase activity (cholinesterase): ineffective

Compound: COc1ccc2c3c1O[C@H]1C[C@@H](OC(=O)C4CC4)C=C[C@@]31CCN(C)C2 [cyclopropyl carbinol ester]
- % Inhibition at 10^−6 (acetylcholinesterase [5]): 13%
- % Inhibition at 10^−7 (acetylcholinesterase [5]): 0%
- % Inhibition at −10^−5 (acetylcholinesterase [5]): 40%

Compound: COc1ccc2c3c1O[C@H]1CC(O)C=C[C@@]31CCN(C)C2 (stereo partly shown) [Galanthamine, reference compound]
- best dose in passive avoidance test [6]: 3 mg/kg

Compound: CNC(=O)Oc1ccc2c3c1OC1CC(O)C=CC31CCN(C)C2 (stereo not shown) [O-demethyl-galanthamine-13-methyl carbamate]
- POE, mice showing peripheral cholinergic effects (mice; 0.31 mg/kg): not noted in any of four mice
- POE, mice showing peripheral cholinergic effects (mice; 0.63 mg/kg): noticeable in one mouse out of four
- POE, mice showing peripheral cholinergic effects (mice; 1 mg/kg): in all four mice
- IC50 (acetylcholinesterase [4]; IC50, acetyl cholinesterase inhibition, S 0.3 mM): 2 nM
- IC50 (acetylcholinesterase [4]; IC50, acetyl cholinesterase inhibition, S 5 mM): 2 nM

Compound: COc1ccc2c3c1O[C@H]1C[C@@H](OC(=O)CC(C)C)C=C[C@@]31CCN(C)C2 [iso-valeroyl ester]
- % Inhibition at 10^−6 (acetylcholinesterase [5]): 39%
- % Inhibition at 10^−7 (acetylcholinesterase [5]): 13%
- % Inhibition at −10^−5 (acetylcholinesterase [5]): 33%

Compound: CC(C)OC(N)=O [isopropyl carbamate]
- % Inhibition at 10^−6 (acetylcholinesterase [5]): 0%
- % Inhibition at 10^−7 (acetylcholinesterase [5]): 0%
- % Inhibition at −10^−5 (acetylcholinesterase [5]): 21%

Compound: deoxydemethyl lycoramine methiodide
- cholinesterase activity (cholinesterase): good activity

Compound: CCCCC(=O)O[C@H]1C=C[C@@]23CCN(C)Cc4ccc(OC)c(c42)O[C@H]3C1 [valeric ester]
- % Inhibition at 10^−6 (acetylcholinesterase [5]): 35%
- % Inhibition at 10^−7 (acetylcholinesterase [5]): 37%
- % Inhibition at −10^−5 (acetylcholinesterase [5]): 41%

Compound: CCCCCC(=O)O[C@H]1C=C[C@@]23CCN(C)Cc4ccc(OC)c(c42)O[C@H]3C1 [hexanoic ester]
- % Inhibition at 10^−6 (acetylcholinesterase [5]): 30%
- % Inhibition at 10^−7 (acetylcholinesterase [5]): 36%
- % Inhibition at −10^−5 (acetylcholinesterase [5]): 55%

Compound: COc1ccc2c3c1OC1C[C@H](Cl)C=C[C@@]31CCN(C)C2 (stereo partly shown) [Product of Example 10]
- inhibition at 10 µM (acetylcholinesterase [1]; [11]): 73%

Compound: COc1ccc2c3c1O[C@H]1C[C@@H](OC(=O)Nc4ccccc4)C=C[C@@]31CCN(C)C2 [Product of Example 3]
- inhibition at 10 µM (acetylcholinesterase [1]; [7]): 37%

Compound: CCCCCCCCOC(N)=O [octyl carbamate]
- % Inhibition at 10^−6 (acetylcholinesterase [5]): 35%
- % Inhibition at 10^−7 (acetylcholinesterase [5]): 16%
- % Inhibition at −10^−5 (acetylcholinesterase [5]): 55%

Compound: COc1ccc2c3c1OC1C(O)CC=C4C(C2)[N+](C)(C)CCC431.[I-] (stereo not shown) [neopin methiodide]
- cholinesterase activity (cholinesterase): ineffective

Compound: lycoramine azide
- cholinesterase inhibition at 10^−5 M (acetylcholinesterase [1]): 25

Compound: COc1ccc2c3c1OC1CC(O)C=C[C@@]31CCNC2 (single isomer, unassigned; (-)) [N-demethyl galanthamine, (−) N-demethylgalanthamine]
- # > CO/n [2, 12]: 0/15
- % > CO [2, 12]: 0%
- Mean Latency [2, 12]: 21 s
- # > CO/n [2, 13]: 2/15
- % > CO [2, 13]: 13%
- Mean Latency [2, 13]: 33 s
- # > CO/n [2, 14]: 2/15
- % > CO [2, 14]: 13%
- Mean Latency [2, 14]: 26 s
- antagonism of scopolamine induced memory deficit ([2]; doses of 0.3, 1.0 and 3.0 mg/kg): inactive

Compound: COc1ccc2c3c1O[C@H]1C[C@@H](OC(=O)c4ccccc4F)C=C[C@@]31CCN(C)C2 [o-F-benzoic ester]
- % Inhibition at 10^−6 (acetylcholinesterase [5]): 39%
- % Inhibition at 10^−7 (acetylcholinesterase [5]): 37%
- % Inhibition at −10^−5 (acetylcholinesterase [5]): 27%

Compound: CCNC(=O)O[C@H]1C=C[C@@]23CCN(C)Cc4ccc(OC)c(c42)O[C@H]3C1 [ethyl carbaxnate]
- % Inhibition at 10^−6 (acetylcholinesterase [5]): 70%
- % Inhibition at 10^−7 (acetylcholinesterase [5]): 9%
- % Inhibition at −10^−5 (acetylcholinesterase [5]): 59%

Compound: COc1ccc2c3c1OC1CC(I)CCC31CCN(C)C2 (stereo not shown) [2-iodo-2-dehydroxy lycoramine]
- cholinesterase inhibition at 10^−5 M (acetylcholinesterase [1]): 15

Compound: COc1ccc2c3c1OC1CC(OC(=O)Nc4cccc5ccccc45)C=CC31CCN(C)C2 (stereo not shown) [Product of Example 4]
- PERCENT INHIBITION OF ACETYLCHOLINESTERASE (acetylcholinesterase [1]; dilution of 10^−5 molar): 60%

Compound: COc1ccc2c3c1OC1CCCC[C@@]31CCN(C)C2 (stereo partly shown) [deoxylycoramine]
- cholinesterase activity (cholinesterase): some activity

Compound: COc1ccc2c3c1OC1CC(N)CCC31CCN(C)C2 (stereo not shown) [2-amino-2-dehydroxy lycoramine]
- cholinesterase inhibition at 10^−5 M (acetylcholinesterase [1]): 17

Compound: COc1ccc2c3c1O[C@H]1C[C@@H](O)C=CC31CC[N+](C)(C)C2.[I-] (stereo partly shown) [galanthamine methiodide]
- solubility in cold water ([3]; cold water): slightly soluble
- solubility in hot water ([3]; hot water): soluble

Compound: COc1ccc2c3c1O[C@H]1C[C@H](OC(C)=O)C=C[C@@]31CCN(C)C2 [epigalanthamine acetate (from Example 8), epigalanthamine acetate]
- solubility in alcohols [3]: soluble
- inhibition at 10 µM (acetylcholinesterase [1]; [11]): 21%

Compound: CCCOC(N)=O [n-propyl carbamate]
- % Inhibition at 10^−6 (acetylcholinesterase [5]): 50%
- % Inhibition at 10^−7 (acetylcholinesterase [5]): 21%
- % Inhibition at −10^−5 (acetylcholinesterase [5]): 34%

Compound: CN1CC[C@@]23C=C[C@H](O)CC2Oc2c(O)ccc(c23)C1 (stereo partly shown) [O-demethyl-galanthamine, O-demethyl galanthamine]
- inhibition at 10 µM (acetylcholinesterase [1]; [11]): ≥ 100%
- inhibition at 1 µM (acetylcholinesterase [1]): 89%
- inhibition at 0.001 µM (acetylcholinesterase [1]): 55%

Compound: COc1cc2c3c(c1)OC1C/C(=N/NC(N)=O)C=C[C@@]31CCN(C)C2 (stereo partly shown) [narwedine semicarbazone]
- solubility in alcohols [3]: soluble
- inhibition of acetylcholinesterase at concentration 10^−5 (acetylcholinesterase [1]; 10^−5 molar): inactive

Compound: 4,5-dehydrogalanthamine
- cholinesterase inhibition at 10^−5 M (acetylcholinesterase [1]): 30
